Source: ChEMBL document CHEMBL4342498, “Design and Discovery of an Orally Efficacious Spiroindolinone-Based Tankyrase Inhibitor for the Treatment of Colon Cancer” (J Med Chem, 2020)

Key:
[1] = AUC (infinity) in ICR mouse at 50 mg/kg, ip; format: ADME, organism-based; design: dose 50 mg/kg, route intraperitoneal, time infinity; details: in vivo
[2] = Stability in rat liver microsomes assessed as parent compound remaining at 1 uM measured after 60 mins in presence of NADPH by LC-MS/MS analysis; format: ADME, Microsome; details: read-out: Stability
[3] = Stability in mouse liver microsomes assessed as parent compound remaining at 1 uM measured after 30 mins in presence of NADPH by LC-MS/MS analysis; format: ADME, Microsome; details: read-out: Stability
Tankyrase 1/2 = biological target: T1, Tankyrase 1/2 (Homo sapiens, UniProt Q9H2K2+O95271)
T1 sequence (Q9H2K2 whole entry): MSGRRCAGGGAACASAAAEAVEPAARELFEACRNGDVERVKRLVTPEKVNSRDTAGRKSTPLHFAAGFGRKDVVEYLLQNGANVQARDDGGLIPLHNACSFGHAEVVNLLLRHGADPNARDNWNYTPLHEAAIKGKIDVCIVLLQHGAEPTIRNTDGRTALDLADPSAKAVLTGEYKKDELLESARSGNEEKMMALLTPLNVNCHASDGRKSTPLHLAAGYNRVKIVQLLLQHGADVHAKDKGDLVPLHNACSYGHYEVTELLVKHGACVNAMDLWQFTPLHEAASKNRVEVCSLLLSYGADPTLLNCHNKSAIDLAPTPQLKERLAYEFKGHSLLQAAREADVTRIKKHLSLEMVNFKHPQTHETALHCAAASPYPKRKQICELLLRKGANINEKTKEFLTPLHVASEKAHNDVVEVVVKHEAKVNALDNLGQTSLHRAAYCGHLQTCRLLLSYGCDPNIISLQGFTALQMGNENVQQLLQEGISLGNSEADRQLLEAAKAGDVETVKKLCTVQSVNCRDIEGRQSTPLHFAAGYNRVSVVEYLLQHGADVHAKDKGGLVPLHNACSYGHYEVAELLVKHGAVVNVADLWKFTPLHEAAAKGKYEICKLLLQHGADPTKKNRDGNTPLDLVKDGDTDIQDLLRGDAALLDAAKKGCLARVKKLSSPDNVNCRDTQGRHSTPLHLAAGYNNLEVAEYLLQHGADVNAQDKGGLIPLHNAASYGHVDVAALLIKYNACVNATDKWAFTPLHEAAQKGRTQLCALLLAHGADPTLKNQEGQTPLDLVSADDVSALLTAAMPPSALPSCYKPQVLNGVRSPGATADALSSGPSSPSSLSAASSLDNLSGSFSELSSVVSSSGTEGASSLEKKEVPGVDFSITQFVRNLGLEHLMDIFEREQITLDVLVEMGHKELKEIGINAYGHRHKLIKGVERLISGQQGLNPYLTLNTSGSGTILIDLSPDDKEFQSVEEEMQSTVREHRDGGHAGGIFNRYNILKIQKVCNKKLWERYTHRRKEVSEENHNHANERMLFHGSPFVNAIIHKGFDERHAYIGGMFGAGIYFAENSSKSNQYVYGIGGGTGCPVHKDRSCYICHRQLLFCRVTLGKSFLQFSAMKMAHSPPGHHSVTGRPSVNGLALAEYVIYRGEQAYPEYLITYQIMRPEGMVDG
T1 sequence (O95271 whole entry): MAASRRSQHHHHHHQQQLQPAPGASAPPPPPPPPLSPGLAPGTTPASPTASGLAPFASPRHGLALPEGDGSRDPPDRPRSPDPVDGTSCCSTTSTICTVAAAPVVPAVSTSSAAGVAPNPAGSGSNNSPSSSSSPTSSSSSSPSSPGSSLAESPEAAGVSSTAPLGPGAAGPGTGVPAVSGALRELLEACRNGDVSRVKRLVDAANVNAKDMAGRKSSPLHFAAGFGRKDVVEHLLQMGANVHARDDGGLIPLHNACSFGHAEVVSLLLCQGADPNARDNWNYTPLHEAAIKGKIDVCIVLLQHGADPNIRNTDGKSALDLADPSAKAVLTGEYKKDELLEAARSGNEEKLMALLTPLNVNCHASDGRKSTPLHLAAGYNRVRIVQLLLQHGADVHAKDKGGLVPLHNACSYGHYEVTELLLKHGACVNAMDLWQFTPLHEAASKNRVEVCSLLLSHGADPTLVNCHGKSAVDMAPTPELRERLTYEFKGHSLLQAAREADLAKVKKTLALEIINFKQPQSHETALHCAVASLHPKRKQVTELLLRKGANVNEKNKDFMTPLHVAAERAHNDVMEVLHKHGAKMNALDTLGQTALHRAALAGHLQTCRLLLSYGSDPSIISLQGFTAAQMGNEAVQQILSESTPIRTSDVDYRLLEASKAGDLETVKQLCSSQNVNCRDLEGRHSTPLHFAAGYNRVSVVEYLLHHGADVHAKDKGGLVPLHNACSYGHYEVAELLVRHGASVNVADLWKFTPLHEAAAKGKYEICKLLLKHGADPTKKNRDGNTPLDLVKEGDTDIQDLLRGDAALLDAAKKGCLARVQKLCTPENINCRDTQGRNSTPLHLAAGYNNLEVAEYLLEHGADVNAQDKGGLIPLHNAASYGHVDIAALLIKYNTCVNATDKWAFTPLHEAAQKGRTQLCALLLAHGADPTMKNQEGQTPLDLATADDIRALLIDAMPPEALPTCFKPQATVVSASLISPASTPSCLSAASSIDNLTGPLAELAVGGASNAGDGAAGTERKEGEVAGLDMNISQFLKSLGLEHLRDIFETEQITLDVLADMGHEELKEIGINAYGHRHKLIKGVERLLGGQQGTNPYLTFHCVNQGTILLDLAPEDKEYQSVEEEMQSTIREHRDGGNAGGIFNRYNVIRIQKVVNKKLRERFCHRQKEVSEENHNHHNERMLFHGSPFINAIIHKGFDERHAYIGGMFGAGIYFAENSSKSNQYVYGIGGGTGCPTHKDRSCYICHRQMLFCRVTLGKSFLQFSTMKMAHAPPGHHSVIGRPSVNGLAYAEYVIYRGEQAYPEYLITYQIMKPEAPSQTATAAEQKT
Description: Inhibition of TNKS/TNKS2 (unknown origin) expressed in human DLD1 cells assessed as reduction in Wnt-signaling measured after 24 hrs by TCF-luciferase reporter gene assay

COLO 320DM = assay: Antiproliferative activity against human COLO320DM cells assessed as inhibition of cell growth measured after 4 days by CellTiter-Glo assay; format: functional; details: 96 h
[4] = Net efflux ratio of permeability across basolateral to apical side over apical to basolateral side in MDCK2-MDR1 cells to MDCK2 cells; format: ADME, cell-based, Canis lupus familiaris; details: dog, mdck
[5] = Stability in rat liver microsomes assessed as parent compound remaining at 1 uM measured after 30 mins in presence of NADPH by LC-MS/MS analysis; format: ADME, Microsome; details: read-out: Stability
MDR1 = assay: Efflux ratio of permeability across basolateral to apical side over apical to basolateral side in MDCK2-MDR1 cells; format: ADME, cell-based, Canis lupus familiaris; details: dog, MDCK-MDR1
[6] = Protein binding in mouse plasma assessed as unbound fraction at 1 uM measured after 24 hrs by LC-MS/MS analysis; format: ADME, cell-free
[7] = Tmax in ICR mouse at 50 mg/kg, po; format: ADME, organism-based; details: in vivo
[8] = Cmax in ICR mouse at 50 mg/kg, ip; format: ADME, organism-based; design: dose 50 mg/kg, route intraperitoneal; details: in vivo
[9] = Stability in human liver microsomes assessed as parent compound remaining at 1 uM measured after 60 mins in presence of NADPH by LC-MS/MS analysis; format: ADME, Microsome; details: read-out: Stability

SMILES	AUC(0-inf) [1]	remaining at 1 h, 1 µM [2]	remaining at 0.5 h, 1 µM [3]	IC50 (Tankyrase 1/2)	GI50 (COLO 320DM)	Ratio [4]	remaining at 0.5 h, 1 µM [5]	efflux ratio (MDR1)	fraction unbound at 24 h, 1 µM [6]	Tmax [7]	Cmax [8]	remaining at 1 h, 1 µM [9]
C[C@@H]1CN(c2cc(F)c3c(c2)N(C)C(=O)C32CCN(c3nc4c(c(=O)[nH]3)CCCN4C)CC2)C[C@H](C)O1	607 µM·h	44%	49.7%	3.1 nM	230 nM	1.1	57.3%	1	0.006	60 min	102 µM	28.7 to 55.9%
CN1CCN(c2cc(F)c3c(c2)N(C)C(=O)C32CCN(c3nc4c(c(=O)[nH]3)CCCN4C)CC2)CC1	207 µM·h	65.3%	54.9%	8.4 nM	190 nM	4.3	80.2%	13.2	0.019	15 min	53.6 µM	30.5 to 54.5%
